Tests used:
[1] = Half life in phosphate buffered saline at pH 7.4; type: physicochemical
Pseudomonas sp. [2] = experiment: Activity of Pseudomonas sp. carboxypeptidase G2 assessed as compound hydrolysis by Michaelis-Menten plot analysis
Pseudomonas sp. [3] = experiment: Activity of Pseudomonas sp. carboxypeptidase G2 assessed as half life of compound hydrolysis by UV spectrophotometric analysis
Pseudomonas sp. [4] = experiment: Ratio of Kcat to Km for Pseudomonas sp. carboxypeptidase G2
[5] = Protein binding in human plasma; type: ADME, cell-free; conditions: read-out: PPB (converted)
Albumin = Albumin (Homo sapiens, UniProt P02768); experiment: Binding affinity to human serum albumin by HPLC analysis; type: ADME; conditions: isolated protein
Chain of Albumin (P02768 whole entry): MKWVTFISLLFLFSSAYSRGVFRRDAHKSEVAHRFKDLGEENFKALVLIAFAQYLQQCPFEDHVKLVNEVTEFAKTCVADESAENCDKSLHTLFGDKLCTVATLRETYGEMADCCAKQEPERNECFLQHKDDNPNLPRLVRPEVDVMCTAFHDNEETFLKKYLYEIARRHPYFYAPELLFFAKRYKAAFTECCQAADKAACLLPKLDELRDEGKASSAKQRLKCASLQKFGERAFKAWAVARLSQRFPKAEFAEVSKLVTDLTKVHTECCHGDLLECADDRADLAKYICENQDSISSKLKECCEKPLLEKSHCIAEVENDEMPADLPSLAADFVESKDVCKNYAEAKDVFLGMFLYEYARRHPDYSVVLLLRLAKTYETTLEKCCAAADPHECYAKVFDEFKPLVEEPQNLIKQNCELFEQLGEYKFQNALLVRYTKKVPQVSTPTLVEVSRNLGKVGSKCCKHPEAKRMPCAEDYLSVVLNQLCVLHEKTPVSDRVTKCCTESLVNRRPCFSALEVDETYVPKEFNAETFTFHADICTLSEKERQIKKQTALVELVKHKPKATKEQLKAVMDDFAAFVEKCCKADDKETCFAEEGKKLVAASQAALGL

Compound	half-life [1]	further results
CCOC(=O)c1ccc(/N=N/N(C)C(=O)N[C@@H](CCC(=O)OC)C(=O)OC)cc1	102 h	–
O=C(O)CC[C@H](NC(=O)Nc1ccc(N(CCCl)CCCl)cc1)C(=O)O	0.28 h	Km (Pseudomonas sp. [2]): 3 µM
CN(/N=N/c1ccc(C#N)cc1)C(=O)N[C@@H](CCC(=O)O)C(=O)O	2.17 h	T1/2 (Pseudomonas sp. [3]): 3.5 min; kcat/Km (Pseudomonas sp. [4]): 260000 M⁻¹ s⁻¹; Km (Pseudomonas sp. [2]): 17.7 µM; Vmax (Pseudomonas sp. [2]): 4.94 µM/min; kcat (Pseudomonas sp. [2]): 4.64 s⁻¹
O=C(O)CC[C@H](NC(=O)Nc1ccc(COC(=O)Nc2ccc(N(CCI)CCI)cc2N(CCI)CCI)cc1)C(=O)O	< 0.0667 h	–
CN(/N=N/c1ccc(C(N)=O)cc1)C(=O)N[C@@H](CCC(=O)O)C(=O)O	0.107 h	–
O=C(O)CC[C@H](NC(=O)Nc1ccc(N(CCCl)CCCl)c(Cl)c1)C(=O)O	< 0.283 h	–
CCOC(=O)c1ccc(/N=N/N(C)C(=O)N[C@@H](CCC(=O)O)C(=O)O)cc1	2.89 h	T1/2 (Pseudomonas sp. [3]): 5.7 min; kcat/Km (Pseudomonas sp. [4]): 410000 M⁻¹ s⁻¹; Km (Pseudomonas sp. [2]): 2.73 µM; Vmax (Pseudomonas sp. [2]): 1.18 µM/min; kcat (Pseudomonas sp. [2]): 1.11 s⁻¹
O=C(O)CC[C@H](NC(=O)c1ccc(N(CCCl)CCCl)cc1)C(=O)O	–	fraction unbound [5]: 0.08
CN(C(=O)OCc1ccc(NC(=O)N[C@@H](CCC(=O)O)C(=O)O)cc1)c1ccc(N(CCBr)CCBr)cc1	< 0.0667 h	–
O=C(O)CC[C@H](NC(=O)Nc1ccc(COC(=O)Nc2ccc(N(CCBr)CCBr)cc2N(CCBr)CCBr)cc1)C(=O)O	< 0.0667 h	–
CC(=O)c1ccc(/N=N/N(C)C(=O)N[C@@H](CCC(=O)O)C(=O)O)cc1	0.0433 h	–
Cc1cc(NC(=O)Nc2ccc(N(CCCl)CCCl)cc2)c2ccccc2n1	16.5 h	–
CN(C(=O)OCc1ccc(NC(=O)N[C@@H](CCC(=O)O)C(=O)O)cc1)c1ccc(N(CCCl)CCCl)cc1	–	Km (Pseudomonas sp. [2]): 6.1 µM
CN(/N=N/c1ccc(Br)cc1)C(=O)N[C@@H](CCC(=O)O)C(=O)O	3.66 h	Activity (Albumin): Active
Cc1ccc(/N=N/N(C)C(=O)N[C@@H](CCC(=O)O)C(=O)O)cc1	7.63 h	–
O=C(O)CC[C@H](NC(=O)Nc1ccc(N(CCCl)CCCl)c(F)c1)C(=O)O	< 0.283 h	–
CN(C(=O)OCc1ccc(NC(=O)N[C@@H](CCC(=O)O)C(=O)O)cc1)c1ccc(N(CCI)CCI)cc1	< 0.0667 h	–
